Reference: US10168342B2, “Lipid probes and uses thereof” (THE SCRIPPS RESEARCH INSTITUTE, priority 2015, dated 2019)
Like-named read-outs stand apart in the source and are kept apart here.

Assays:
[1] = molecular target: T1, AEA-DA lipid probe targets in Neuro2a cells (Mus musculus, UniProt P52825)
T1 sequence (P52825 26-658): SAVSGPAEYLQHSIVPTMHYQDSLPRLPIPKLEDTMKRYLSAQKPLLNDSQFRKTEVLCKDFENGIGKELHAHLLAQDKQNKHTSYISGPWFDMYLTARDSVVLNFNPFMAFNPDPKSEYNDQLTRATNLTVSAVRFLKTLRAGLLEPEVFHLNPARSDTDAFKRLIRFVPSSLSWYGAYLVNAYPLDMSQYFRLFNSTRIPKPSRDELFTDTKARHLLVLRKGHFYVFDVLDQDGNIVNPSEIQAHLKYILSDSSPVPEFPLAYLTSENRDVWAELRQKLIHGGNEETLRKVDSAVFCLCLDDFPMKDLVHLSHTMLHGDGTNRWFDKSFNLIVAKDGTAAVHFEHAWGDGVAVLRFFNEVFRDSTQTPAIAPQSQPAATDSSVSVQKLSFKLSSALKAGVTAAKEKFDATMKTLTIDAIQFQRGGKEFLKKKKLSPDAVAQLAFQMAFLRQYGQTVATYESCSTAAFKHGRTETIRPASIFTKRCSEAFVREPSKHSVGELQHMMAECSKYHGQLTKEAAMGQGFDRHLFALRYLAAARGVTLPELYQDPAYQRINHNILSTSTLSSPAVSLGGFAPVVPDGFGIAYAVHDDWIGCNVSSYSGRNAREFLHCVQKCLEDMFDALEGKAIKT

[2] = molecular target: T2, AEA-DA lipid probe targets in Neuro2a cells (Mus musculus, UniProt Q9WU62)
T2 sequence (Q9WU62 1-880): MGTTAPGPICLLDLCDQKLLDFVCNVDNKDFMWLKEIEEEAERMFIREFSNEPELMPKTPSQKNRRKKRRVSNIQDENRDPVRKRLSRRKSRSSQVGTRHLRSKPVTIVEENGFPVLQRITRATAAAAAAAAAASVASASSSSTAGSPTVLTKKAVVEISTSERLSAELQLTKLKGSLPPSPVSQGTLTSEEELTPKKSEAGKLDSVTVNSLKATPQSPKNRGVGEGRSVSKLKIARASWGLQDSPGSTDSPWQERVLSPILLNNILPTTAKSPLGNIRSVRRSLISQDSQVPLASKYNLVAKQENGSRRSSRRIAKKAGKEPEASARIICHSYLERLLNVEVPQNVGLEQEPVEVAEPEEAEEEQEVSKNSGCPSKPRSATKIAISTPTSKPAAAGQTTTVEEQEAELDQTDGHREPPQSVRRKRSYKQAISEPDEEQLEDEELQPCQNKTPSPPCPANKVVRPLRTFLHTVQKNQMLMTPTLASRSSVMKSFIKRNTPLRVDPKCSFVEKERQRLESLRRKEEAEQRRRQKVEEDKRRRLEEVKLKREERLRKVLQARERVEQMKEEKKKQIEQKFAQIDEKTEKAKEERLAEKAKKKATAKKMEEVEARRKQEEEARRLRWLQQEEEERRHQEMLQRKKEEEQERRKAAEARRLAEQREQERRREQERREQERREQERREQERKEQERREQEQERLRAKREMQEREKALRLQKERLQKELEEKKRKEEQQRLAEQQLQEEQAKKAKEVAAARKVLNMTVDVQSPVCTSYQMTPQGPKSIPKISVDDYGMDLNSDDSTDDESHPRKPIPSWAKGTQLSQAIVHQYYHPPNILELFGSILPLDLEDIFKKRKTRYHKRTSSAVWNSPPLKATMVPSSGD

[3] = molecular target: T3, AEA-DA lipid probe targets in Neuro2a cells (Mus musculus, UniProt Q99JY4); conditions: for SILAC ratio, TRABD (Q99JY4): Neuro2a cells, AEA-DA probe
T3 sequence (Q99JY4 1-376): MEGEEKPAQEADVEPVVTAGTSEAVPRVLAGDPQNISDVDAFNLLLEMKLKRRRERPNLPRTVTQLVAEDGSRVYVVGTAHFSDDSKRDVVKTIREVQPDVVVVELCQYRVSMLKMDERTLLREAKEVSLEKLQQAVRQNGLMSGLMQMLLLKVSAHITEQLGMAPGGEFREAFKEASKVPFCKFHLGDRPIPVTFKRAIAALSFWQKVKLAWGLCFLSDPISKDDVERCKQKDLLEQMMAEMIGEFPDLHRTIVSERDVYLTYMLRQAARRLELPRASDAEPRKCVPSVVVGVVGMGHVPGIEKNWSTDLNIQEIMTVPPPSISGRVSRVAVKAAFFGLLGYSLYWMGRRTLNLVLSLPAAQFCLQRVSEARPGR

[4] = molecular target: AEA-DA lipid probe targets in Neuro2a cells (Mus musculus, UniProt Q8VIK2)
[5] = molecular target: T4, AEA-DA lipid probe targets in Neuro2a cells (Mus musculus, UniProt Q5XJY4)
T4 sequence (Q5XJY4 51-377): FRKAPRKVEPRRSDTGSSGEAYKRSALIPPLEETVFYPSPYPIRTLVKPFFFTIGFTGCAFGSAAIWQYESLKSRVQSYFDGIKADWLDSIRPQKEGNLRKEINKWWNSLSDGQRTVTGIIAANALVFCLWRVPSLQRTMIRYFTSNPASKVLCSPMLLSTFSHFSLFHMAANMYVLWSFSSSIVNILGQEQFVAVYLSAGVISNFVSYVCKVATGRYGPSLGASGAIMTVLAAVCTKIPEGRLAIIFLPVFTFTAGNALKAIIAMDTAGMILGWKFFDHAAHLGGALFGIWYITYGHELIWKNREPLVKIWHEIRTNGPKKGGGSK

[6] = molecular target: T5, AEA-DA lipid probe targets in Neuro2a cells (Mus musculus, UniProt O35887)
T5 sequence (O35887 20-315): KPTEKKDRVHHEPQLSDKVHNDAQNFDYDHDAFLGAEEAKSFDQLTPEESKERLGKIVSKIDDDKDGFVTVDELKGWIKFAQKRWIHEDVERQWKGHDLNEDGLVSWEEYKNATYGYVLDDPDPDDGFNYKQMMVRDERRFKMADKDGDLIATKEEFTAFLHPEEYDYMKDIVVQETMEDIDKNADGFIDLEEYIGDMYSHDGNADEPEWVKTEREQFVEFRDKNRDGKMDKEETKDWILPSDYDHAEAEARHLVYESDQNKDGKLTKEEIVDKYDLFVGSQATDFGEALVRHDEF

[7] = molecular target: AEA-DA lipid probe targets in Neuro2a cells (Mus musculus, UniProt P60229)
Sequence of AEA-DA lipid probe targets in Neuro2a cells (Mus musculus, UniProt P60229) (P60229 whole entry): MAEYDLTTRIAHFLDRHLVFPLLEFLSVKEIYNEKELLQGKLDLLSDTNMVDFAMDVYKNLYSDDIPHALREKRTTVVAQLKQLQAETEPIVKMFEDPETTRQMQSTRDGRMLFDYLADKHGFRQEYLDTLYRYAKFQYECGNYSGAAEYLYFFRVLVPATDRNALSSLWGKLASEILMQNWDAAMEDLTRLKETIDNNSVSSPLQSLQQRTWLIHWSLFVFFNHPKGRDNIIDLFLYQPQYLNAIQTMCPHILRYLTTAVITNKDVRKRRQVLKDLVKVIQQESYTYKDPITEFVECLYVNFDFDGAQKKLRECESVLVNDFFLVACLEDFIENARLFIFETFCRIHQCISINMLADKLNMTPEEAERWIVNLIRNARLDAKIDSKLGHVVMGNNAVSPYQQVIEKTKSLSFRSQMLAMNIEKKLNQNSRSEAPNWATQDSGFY

Sequence of AEA-DA lipid probe targets in Neuro2a cells (Mus musculus, UniProt Q8VIK2) (Q8VIK2 whole entry): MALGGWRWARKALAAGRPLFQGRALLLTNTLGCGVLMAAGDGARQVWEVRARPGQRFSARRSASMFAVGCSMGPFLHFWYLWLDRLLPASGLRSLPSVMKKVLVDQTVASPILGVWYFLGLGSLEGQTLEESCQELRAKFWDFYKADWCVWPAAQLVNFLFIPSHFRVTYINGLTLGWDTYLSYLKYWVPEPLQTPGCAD

SMILES	SILAC ratio, Cpt2 ([1]; competitor 25 μM)	SILAC ratio Incenp ([2]; competitor 25 μM)	SILAC ratio, TRABD (Q99JY4) ([3]; competitor 25 μM)	SILAC ratio, Trabd ([3]; competitor 25 μM)	SILAC ratio Mpv17l2 ([4]; competitor 25 μM)	SILAC ratio Parl ([5]; competitor 25 μM)	SILAC ratio, Calu ([6]; competitor 25 μM)	SILAC ratio Eif3e ([7]; competitor 25 μM)	other results
CCCCC/C=C\C/C=C\C/C=C\C/C=C\CCCC(=O)NCCO [AEA, anandamide, reference compound]	–	–	–	–	–	–	–	–	SILAC ratio, Cpt2 ([1]; competitor 200 μM): 1.1; SILAC ratio Incenp ([2]; competitor 200 μM): 1.4; SILAC ratio, TRABD (Q99JY4) ([3]; competitor 200 μM): 1.0; SILAC ratio, Trabd ([3]; competitor 200 μM): 1.0; SILAC ratio Mpv17l2 ([4]; competitor 200 μM): 1.3; SILAC ratio Parl ([5]; competitor 200 μM): 1.3; SILAC ratio, Calu ([6]; competitor 200 μM): 1.0; SILAC ratio Eif3e ([7]; competitor 200 μM): 1.2
O=C(/C=C/c1cccnc1)NCCCCC1CCN(C(=O)c2ccccc2)CC1 [FK-866, reference compound]	3.1	0.8	1.2	1.2	1.4	1.3	1.0	1.1	–
CN1CCN(C(=O)c2c(-c3ccccc3)c3cc([N+](=O)[O-])ccc3n2C)CC1 [KML110, (1-Methyl-5-nitro-3-phenyl-1H-indol-2-yl)(4-methylpiperazin-1-yl)methanone]	1.5	1.2	–	1.5	1.5	1.3	1.1	1.4	–
CN1CCN(C(=O)c2[nH]c3ccc([N+](=O)[O-])cc3c2-c2ccccc2)CC1 [MJN228, (4-Methylpiperazin-1-yl)(5-nitro-3-phenyl-1H-indol-2-yl)methanone]	1.7	1.2	1.3	1.3	1.2	1.4	1.5	1.1	SILAC ratio, Cpt2 ([1]; competitor 10 μM): 1.3; SILAC ratio, Cpt2 ([1]; competitor 50 μM): 2.7; SILAC ratio, Cpt2 ([1]; competitor 100 μM): 5.5; SILAC ratio Incenp ([2]; competitor 10 μM): 1.4; SILAC ratio Incenp ([2]; competitor 50 μM): 1.8; SILAC ratio Incenp ([2]; competitor 100 μM): 1.7; SILAC ratio, Trabd ([3]; competitor 10 μM): 1.1; SILAC ratio, Trabd ([3]; competitor 50 μM): 1.4; SILAC ratio, Trabd ([3]; competitor 100 μM): 1.7; SILAC ratio Mpv17l2 ([4]; competitor 10 μM): 1.1; SILAC ratio Mpv17l2 ([4]; competitor 50 μM): 1.0; SILAC ratio Mpv17l2 ([4]; competitor 100 μM): 3.6; SILAC ratio Parl ([5]; competitor 10 μM): 1.3; SILAC ratio Parl ([5]; competitor 50 μM): 1.1; SILAC ratio Parl ([5]; competitor 100 μM): 1.9; SILAC ratio, Calu ([6]; competitor 10 μM): 1.1; SILAC ratio, Calu ([6]; competitor 100 μM): 1.8; SILAC ratio Eif3e ([7]; competitor 10 μM): 1.1; SILAC ratio Eif3e ([7]; competitor 50 μM): 1.0; SILAC ratio Eif3e ([7]; competitor 100 μM): 1.0
C=CCN(C)CCCCCCOc1ccc(C(=O)c2ccc(Br)cc2)c(F)c1 [Ro 48-8071, reference compound]	2.1	–	1.0	1.0	1.8	1.1	0.9	0.8	–
